Measurements reported in the supplement of paper PMC10307832.

Assays:
Test in all cases: relative viability (nuclei count vs DMSO), 5 days (fraction); higher = more cells survive
RERF-LC-KJ = test system: RERF-LC-KJ
Outline: (§1)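 Cells from lung cancer lines were seeded into 1536-well plates and, one day later, dosed by pin tool. Treatments were either a single drug or a fixed dose of an anchor drug with five library-drug doses (not always all listed) in √10 steps. After 5 days, nuclei were stained in a one-step fixation (final 0.05% Triton X-100, 1% formaldehyde, 1 ug/ml Hoechst) and counted on 4× images, and relative viability is the treated-to-vehicle nuclei ratio, as the median of duplicate plates.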

SK-LU-1 = test system: SK-LU-1
Outline: as §1

EMC-BAC-2 = test system: EMC-BAC-2
Outline: as §1

HARA = test system: HARA
Outline: as §1

COR-L23 = test system: COR-L23
Outline: as §1

HOP-62 = test system: HOP-62
Outline: as §1

NCI-H1437 = test system: NCI-H1437
Outline: as §1

UMC-11 = test system: UMC-11
Outline: as §1

NCI-H596 = test system: NCI-H596
Outline: as §1

CAL-12T = test system: CAL-12T
Outline: as §1

NCI-H1651 = test system: NCI-H1651
Outline: as §1

NCI-H1650 = test system: NCI-H1650
Outline: as §1

NCI-H727 = test system: NCI-H727
Outline: as §1

PC-3 [JPC-3] = test system: PC-3 [JPC-3]
Outline: as §1

NCI-H1734 = test system: NCI-H1734
Outline: as §1

NCI-H2347 = test system: NCI-H2347
Outline: as §1

NCI-H1563 = test system: NCI-H1563
Outline: as §1

NCI-H3122 = test system: NCI-H3122
Outline: as §1

NCI-H441 = test system: NCI-H441
Outline: as §1

NCI-H1755 = test system: NCI-H1755
Outline: as §1

LK-2 = test system: LK-2
Outline: as §1

ABC-1 = test system: ABC-1
Outline: as §1

HCC-366 = test system: HCC-366
Outline: as §1

CCNC(=O)c1noc(-c2cc(C(C)C)c(O)cc2O)c1-c1ccc(CN2CCOCC2)cc1 [Luminespib] + C[C@@H](Oc1cc(-c2cnn(C3CCNCC3)c2)cnc1N)c1c(Cl)ccc(F)c1Cl [Crizotinib] (partner 1 µM)
relative viability (RERF-LC-KJ; first compound 0.002 µM): 0.817 | relative viability (RERF-LC-KJ; first compound 0.006325 µM): 0.791 | relative viability (RERF-LC-KJ; first compound 0.02 µM): 0.877 | relative viability (RERF-LC-KJ; first compound 0.06325 µM): 0.948 | relative viability (RERF-LC-KJ; first compound 0.2 µM): 0.223 | relative viability (SK-LU-1; first compound 0.002 µM): 0.992 | relative viability (SK-LU-1; first compound 0.006325 µM): 0.708 | relative viability (SK-LU-1; first compound 0.02 µM): 0.574 | relative viability (SK-LU-1; first compound 0.06325 µM): 0.176 | relative viability (SK-LU-1; first compound 0.2 µM): 0.155 | relative viability (EMC-BAC-2; first compound 0.002 µM): 0.844 | relative viability (EMC-BAC-2; first compound 0.006325 µM): 0.772 | relative viability (EMC-BAC-2; first compound 0.02 µM): 0.584 | relative viability (EMC-BAC-2; first compound 0.06325 µM): 0.729 | relative viability (EMC-BAC-2; first compound 0.2 µM): 0.759 | relative viability (HARA; first compound 0.002 µM): 1.02 | relative viability (HARA; first compound 0.006325 µM): 0.957 | relative viability (HARA; first compound 0.02 µM): 1.17 | relative viability (HARA; first compound 0.06325 µM): 1.06 | relative viability (HARA; first compound 0.2 µM): 0.0699 | relative viability (COR-L23; first compound 0.002 µM): 0.806 | relative viability (COR-L23; first compound 0.006325 µM): 0.629 | relative viability (COR-L23; first compound 0.02 µM): 0.81 | relative viability (COR-L23; first compound 0.06325 µM): 0.0713 | relative viability (COR-L23; first compound 0.2 µM): 0.0608 | relative viability (HOP-62; first compound 0.002 µM): 0.931 | relative viability (HOP-62; first compound 0.006325 µM): 0.962 | relative viability (HOP-62; first compound 0.02 µM): 0.79 | relative viability (HOP-62; first compound 0.06325 µM): 0.993 | relative viability (HOP-62; first compound 0.2 µM): 0.875 | relative viability (NCI-H1437; first compound 0.002 µM): 0.92 | relative viability (NCI-H1437; first compound 0.006325 µM): 0.833 | relative viability (NCI-H1437; first compound 0.02 µM): 1.05 | relative viability (NCI-H1437; first compound 0.06325 µM): 0.83 | relative viability (NCI-H1437; first compound 0.2 µM): 0.478 | relative viability (UMC-11; first compound 0.002 µM): 0.606 | relative viability (UMC-11; first compound 0.006325 µM): 0.584 | relative viability (UMC-11; first compound 0.02 µM): 0.682 | relative viability (UMC-11; first compound 0.06325 µM): 0.156 | relative viability (UMC-11; first compound 0.2 µM): 0.107 | relative viability (NCI-H596; first compound 0.002 µM): 1.05 | relative viability (NCI-H596; first compound 0.006325 µM): 1 | relative viability (NCI-H596; first compound 0.06325 µM): 0.851 | relative viability (NCI-H596; first compound 0.2 µM): 0.938 | relative viability (CAL-12T; first compound 0.002 µM): 0.7 | relative viability (CAL-12T; first compound 0.006325 µM): 0.635 | relative viability (CAL-12T; first compound 0.02 µM): 0.636 | relative viability (CAL-12T; first compound 0.06325 µM): 0.06 | relative viability (CAL-12T; first compound 0.2 µM): 0.0967 | relative viability (NCI-H1651; first compound 0.002 µM): 0.85 | relative viability (NCI-H1651; first compound 0.006325 µM): 0.901 | relative viability (NCI-H1651; first compound 0.02 µM): 0.787 | relative viability (NCI-H1651; first compound 0.06325 µM): 0.813 | relative viability (NCI-H1651; first compound 0.2 µM): 0.63 | relative viability (NCI-H1650; first compound 0.002 µM): 0.944 | relative viability (NCI-H1650; first compound 0.006325 µM): 0.928 | relative viability (NCI-H1650; first compound 0.02 µM): 0.7 | relative viability (NCI-H1650; first compound 0.06325 µM): 0.12 | relative viability (NCI-H1650; first compound 0.2 µM): 0.134 | relative viability (NCI-H727; first compound 0.002 µM): 0.757 | relative viability (NCI-H727; first compound 0.006325 µM): 0.744 | relative viability (NCI-H727; first compound 0.02 µM): 0.739 | relative viability (NCI-H727; first compound 0.06325 µM): 0.212 | relative viability (NCI-H727; first compound 0.2 µM): 0.204 | relative viability (PC-3 [JPC-3]; first compound 0.002 µM): 1.01 | relative viability (PC-3 [JPC-3]; first compound 0.006325 µM): 0.875 | relative viability (PC-3 [JPC-3]; first compound 0.02 µM): 0.971 | relative viability (PC-3 [JPC-3]; first compound 0.06325 µM): 0.996 | relative viability (PC-3 [JPC-3]; first compound 0.2 µM): 0.933 | relative viability (NCI-H1734; first compound 0.002 µM): 0.77 | relative viability (NCI-H1734; first compound 0.006325 µM): 0.612 | relative viability (NCI-H1734; first compound 0.02 µM): 0.566 | relative viability (NCI-H1734; first compound 0.06325 µM): 0.135 | relative viability (NCI-H1734; first compound 0.2 µM): 0.0997 | relative viability (NCI-H2347; first compound 0.002 µM): 0.701 | relative viability (NCI-H2347; first compound 0.02 µM): 0.625 | relative viability (NCI-H2347; first compound 0.06325 µM): 0.315 | relative viability (NCI-H2347; first compound 0.2 µM): 0.311 | relative viability (NCI-H1563; first compound 0.002 µM): 0.937 | relative viability (NCI-H1563; first compound 0.006325 µM): 0.834 | relative viability (NCI-H1563; first compound 0.02 µM): 0.811 | relative viability (NCI-H1563; first compound 0.06325 µM): 0.473 | relative viability (NCI-H1563; first compound 0.2 µM): 0.536 | relative viability (NCI-H3122; first compound 0.002 µM): 0.278 | relative viability (NCI-H3122; first compound 0.006325 µM): 0.267 | relative viability (NCI-H3122; first compound 0.02 µM): 0.222 | relative viability (NCI-H3122; first compound 0.06325 µM): 0.181 | relative viability (NCI-H3122; first compound 0.2 µM): 0.165 | relative viability (NCI-H441; first compound 0.002 µM): 0.884 | relative viability (NCI-H441; first compound 0.006325 µM): 0.719 | relative viability (NCI-H441; first compound 0.02 µM): 0.904 | relative viability (NCI-H441; first compound 0.06325 µM): 0.119 | relative viability (NCI-H441; first compound 0.2 µM): 0.109 | relative viability (NCI-H1755; first compound 0.002 µM): 0.878 | relative viability (NCI-H1755; first compound 0.006325 µM): 0.882 | relative viability (NCI-H1755; first compound 0.02 µM): 0.938 | relative viability (NCI-H1755; first compound 0.06325 µM): 0.756 | relative viability (NCI-H1755; first compound 0.2 µM): 0.315 | relative viability (LK-2; first compound 0.002 µM): 0.215 | relative viability (LK-2; first compound 0.006325 µM): 0.217 | relative viability (LK-2; first compound 0.02 µM): 0.269 | relative viability (LK-2; first compound 0.06325 µM): 0.231 | relative viability (LK-2; first compound 0.2 µM): 0.196 | relative viability (ABC-1; first compound 0.002 µM): 1.55 | relative viability (ABC-1; first compound 0.006325 µM): 0.877 | relative viability (ABC-1; first compound 0.02 µM): 1.06 | relative viability (ABC-1; first compound 0.06325 µM): 0.19 | relative viability (ABC-1; first compound 0.2 µM): 0.18 | relative viability (HCC-366; first compound 0.002 µM): 0.695 | relative viability (HCC-366; first compound 0.006325 µM): 0.659 | relative viability (HCC-366; first compound 0.02 µM): 0.549 | relative viability (HCC-366; first compound 0.06325 µM): 0.0174 | relative viability (HCC-366; first compound 0.2 µM): 0.0135
